Experimental data published in ChEMBL document CHEMBL1781969, “4β-[(4-Alkyl)-1,2,3-triazol-1-yl] podophyllotoxins as anticancer compounds: design, synthesis and biological evaluation” (Eur J Med Chem, 2011).
The source made the active and inactive calls. The rule behind the calls is not given here.

Legend:
[1] = test system: SF-295; test: Cytotoxicity against human SF295 cells after 48 hrs by sulforhodamine B assay; assay type: functional, cell-based; conditions: SF-295, 48 h
[2] = test system: HEp-2; test: Cytotoxicity against human Hep2 cells after 48 hrs by sulforhodamine B assay; assay type: functional, cell-based; conditions: HEp-2, 48 h
[3] = test system: PC-3; test: cells; conditions: Homo sapiens, PC-3, 48 h
Description: Cytotoxicity against human PC3 cells after 48 hrs by sulforhodamine B assay

[4] = test system: A549; test: cells; conditions: Homo sapiens, A549, 48 h
Description: Cytotoxicity against human A549 cells after 48 hrs by sulforhodamine B assay

[5] = test system: MCF7; test: cells; conditions: Homo sapiens, MCF7, 48 h
Description: Cytotoxicity against human MCF7 cells after 48 hrs by sulforhodamine B assay

[6] = test system: HCT-15; test: cells; conditions: Homo sapiens, HCT-15, 48 h
Description: Cytotoxicity against human HCT15 cells after 48 hrs by sulforhodamine B assay

[7] = test system: MCF7; test: Cell cycle arrest in human MCF7 cells assessed as accumulation at G2/M-phase at 5 uM after 24 hrs using propidium iodide staining by flow cytometry (reference value: 19.91%); assay type: functional
[8] = test system: MCF7; test: Cell cycle arrest in human MCF7 cells assessed as accumulation in S-phase at 5 uM after 24 hrs using propidium iodide staining by flow cytometry (reference value: 25.29%); assay type: functional
[9] = test system: MCF7; test: Cell cycle arrest in human MCF7 cells assessed as accumulation at G1/G0-phase at 5 uM after 24 hrs using propidium iodide staining by flow cytometry (reference value: 47.42%); assay type: functional
[10] = test system: MCF7; test: Cell cycle arrest in human MCF7 cells assessed as accumulation at sub-G1 phase at 5 uM after 24 hrs using propidium iodide staining by flow cytometry (reference value: 7.69%); assay type: functional
[11] = test system: MCF7; test: Cell cycle arrest in human MCF7 cells assessed as accumulation at G2/M-phase at 1 uM after 24 hrs using propidium iodide staining by flow cytometry (reference value: 19.91%); assay type: functional
[12] = test system: MCF7; test: Cell cycle arrest in human MCF7 cells assessed as accumulation in S-phase at 1 uM after 24 hrs using propidium iodide staining by flow cytometry (reference value: 25.29%); assay type: functional
[13] = test system: MCF7; test: Cell cycle arrest in human MCF7 cells assessed as accumulation at G1/G0-phase at 1 uM after 24 hrs using propidium iodide staining by flow cytometry (reference value: 47.42%); assay type: functional
[14] = test system: MCF7; test: Cell cycle arrest in human MCF7 cells assessed as accumulation at sub-G1 phase at 1 uM after 24 hrs using propidium iodide staining by flow cytometry (reference value: 7.69%); assay type: functional
[15] = test system: MCF7; test: Induction of apoptosis in human MCF7 cells assessed as DNA ladder formation at 1 uM after 24 hrs using ethidium bromide staining by agarose gel electrophoresis; assay type: functional, cell-based

| SMILES | IC50 [1] | IC50 [2] | IC50 [3] | IC50 [4] | IC50 [5] | IC50 [6] | Activity [7] | Activity [8] | Activity [9] | Activity [10] | Activity [11] | Activity [12] | Activity [13] | Activity [14] | Activity [15] |
| --- | --- | --- | --- | --- | --- | --- | --- | --- | --- | --- | --- | --- | --- | --- | --- |
| CCCCCCCCCCc1cn([C@@H]2c3cc4c(cc3[C@@H](c3cc(OC)c(OC)c(OC)c3)[C@H]3C(=O)OC[C@@H]32)OCO4)nn1 | 6.2 µM | 5.8 µM | 5.5 µM | > 100 µM | 5.7 µM | 29 µM |  |  |  |  |  |  |  |  |  |
| CCCCCCCCc1cn([C@@H]2c3cc4c(cc3[C@@H](c3cc(OC)c(O)c(OC)c3)[C@H]3C(=O)OC[C@@H]32)OCO4)nn1 | 5.7 µM | 3.8 µM | 5.1 µM | > 100 µM | 11 µM | 13 µM |  |  |  |  |  |  |  |  |  |
| CCCCCc1cn([C@@H]2c3cc4c(cc3[C@@H](c3cc(OC)c(OC)c(OC)c3)[C@H]3C(=O)OC[C@@H]32)OCO4)nn1 | 24 µM | 7.7 µM | 8.4 µM | 39 µM | 9.5 µM | 11 µM |  |  |  |  |  |  |  |  |  |
| CCCCc1cn([C@@H]2c3cc4c(cc3[C@@H](c3cc(OC)c(OC)c(OC)c3)[C@H]3C(=O)OC[C@@H]32)OCO4)nn1 | 8.1 µM | 9.6 µM | 6.6 µM | 82 µM | 9.8 µM | 11 µM |  |  |  |  |  |  |  |  |  |
| CCc1cn([C@@H]2c3cc4c(cc3[C@@H](c3cc(OC)c(O)c(OC)c3)[C@H]3C(=O)OC[C@@H]32)OCO4)nn1 | 4.8 µM | 0.05 µM | 0.06 µM | 17 µM | 0.04 µM | 1.9 µM |  |  |  |  |  |  |  |  |  |
| CCCCCCc1cn([C@@H]2c3cc4c(cc3[C@@H](c3cc(OC)c(OC)c(OC)c3)[C@H]3C(=O)OC[C@@H]32)OCO4)nn1 | 10 µM | 10 µM | 6.4 µM | 35 µM | 8.6 µM | 27 µM |  |  |  |  |  |  |  |  |  |
| CCc1cn([C@@H]2c3cc4c(cc3[C@@H](c3cc(OC)c(OC)c(OC)c3)[C@H]3C(=O)OC[C@@H]32)OCO4)nn1 | 1.8 µM | 0.06 µM | 0.03 µM | 35 µM | 0.4 µM | 0.4 µM | 1.74% | 2.84% | 16.28% | 80.1% | 1.96% | 5.99% | 22.27% | 69.34% | Active |
| CCCCCCCc1cn([C@@H]2c3cc4c(cc3[C@@H](c3cc(OC)c(O)c(OC)c3)[C@H]3C(=O)OC[C@@H]32)OCO4)nn1 | 10 µM | 6 µM | 5.8 µM | 45 µM | 13 µM | 15 µM |  |  |  |  |  |  |  |  |  |
| CCCc1cn([C@@H]2c3cc4c(cc3[C@@H](c3cc(OC)c(O)c(OC)c3)[C@H]3C(=O)OC[C@@H]32)OCO4)nn1 | 2.3 µM | 2.9 µM | 0.2 µM | 27 µM | 5.7 µM | 0.8 µM |  |  |  |  |  |  |  |  |  |
| COc1cc([C@@H]2c3cc4c(cc3[C@@H](O[C@@H]3O[C@@H]5CO[C@@H](C)O[C@H]5[C@H](O)[C@H]3O)[C@H]3COC(=O)[C@H]23)OCO4)cc(OC)c1O [ETOPOSIDE] | 13.5 µM |  |  |  | 19 µM | 7.15 µM |  |  |  |  |  |  |  |  |  |
| CCCCCc1cn([C@@H]2c3cc4c(cc3[C@@H](c3cc(OC)c(O)c(OC)c3)[C@H]3C(=O)OC[C@@H]32)OCO4)nn1 | 4.3 µM | 21 µM | 4.7 µM | 26 µM | 14 µM | 2.1 µM |  |  |  |  |  |  |  |  |  |
| CCCCCCCCc1cn([C@@H]2c3cc4c(cc3[C@@H](c3cc(OC)c(OC)c(OC)c3)[C@H]3C(=O)OC[C@@H]32)OCO4)nn1 | 14 µM | 18 µM | 17 µM | > 100 µM | 9.3 µM | > 100 µM |  |  |  |  |  |  |  |  |  |
| CCCCCCc1cn([C@@H]2c3cc4c(cc3[C@@H](c3cc(OC)c(O)c(OC)c3)[C@H]3C(=O)OC[C@@H]32)OCO4)nn1 | 18 µM | > 100 µM | 8.7 µM | 26 µM | 19 µM | 11 µM |  |  |  |  |  |  |  |  |  |
| COc1cc([C@@H]2c3cc4c(cc3[C@@H](n3cc(CO)nn3)[C@H]3COC(=O)[C@H]23)OCO4)cc(OC)c1OC | 2.1 µM | 0.06 µM | 0.06 µM | > 100 µM | 0.01 µM | 15 µM |  |  |  |  |  |  |  |  |  |
| CCCCCCCc1cn([C@@H]2c3cc4c(cc3[C@@H](c3cc(OC)c(OC)c(OC)c3)[C@H]3C(=O)OC[C@@H]32)OCO4)nn1 | 25 µM | 9.8 µM | 23 µM | 36 µM | 6.4 µM | 45 µM |  |  |  |  |  |  |  |  |  |
| CCCc1cn([C@@H]2c3cc4c(cc3[C@@H](c3cc(OC)c(OC)c(OC)c3)[C@H]3C(=O)OC[C@@H]32)OCO4)nn1 | 3.6 µM | 1.6 µM | 5.1 µM | 39 µM | 1.4 µM | 0.03 µM | 1.07% | 11.44% | 10.56% | 78.16% | 3.39% | 16.17% | 27.81% | 55.65% | Active |
| CCCCc1cn([C@@H]2c3cc4c(cc3[C@@H](c3cc(OC)c(O)c(OC)c3)[C@H]3C(=O)OC[C@@H]32)OCO4)nn1 | 21 µM | 17 µM | 12 µM | 35 µM | 20 µM | 34 µM |  |  |  |  |  |  |  |  |  |
| CCCCCCCCCCc1cn([C@@H]2c3cc4c(cc3[C@@H](c3cc(OC)c(O)c(OC)c3)[C@H]3C(=O)OC[C@@H]32)OCO4)nn1 | 13 µM | 19 µM | 19 µM | 30 µM | 11 µM | 15 µM |  |  |  |  |  |  |  |  |  |
| COc1cc([C@@H]2c3cc4c(cc3[C@@H](n3cc(CO)nn3)[C@H]3COC(=O)[C@H]23)OCO4)cc(OC)c1O | 15 µM | 6.7 µM | 8.2 µM | 18 µM | 0.6 µM | 18 µM |  |  |  |  |  |  |  |  |  |
